Where “and” joins values, the source holds several entries; their conditions need not be identical. Equal entries are not always repeated.
Assay: Tigecycline in human serum, tissue and synovial fluid after one intravenous 100 mg dose (LC/MS/MS)
Format: in vivo
Parameters: Calculated Concentration, serum: unit not given here
Experimental: The objective of this study was to determine the tissue and corresponding serum concentration of tigecycline at selected time points in lung, colon, gallbladder tissues, bone, and synovial fluid. Samples were taken from subjects scheduled for lung, colon, gallbladder, or bone surgery, or a lumbar puncture who were given a single dose of tigecycline administered intravenously.
Pre-specified tissue/fluid sampling of either lung, colon, gallbladder, bone, and synovial fluid was performed on each subject during surgery at 4 hours, 8 hours, 12 hours, or 24 hours after the start of a single dose of 100 mg tigecycline administered over 30 minutes. Serum was collected from all subjects at hour 0 (before the first dose), approximately 30 minutes (end of infusion), and at the time corresponding to tissue/fluid collections. Tissue and serum concentration was determined according to the method set forth below.
Samples of human serum and tissue from study subjects who had received tigecycline were analyzed according to methods that had been previously validated. Serum samples and synovial fluid (0.2 ml) were mixed with 0.6 ml internal standard in acetonitrile, the supernatant evaporated to dryness and the residue reconstituted in 200 microliters mobile phase. Aliquots (10 microliters) of the reconstituted samples were injected into an LC/MS/MS.
The data was acquired by and analyzed on PE SCIEX “Analyst” version 1.3 software. Linear regression, with 1/x^2 weighting was used to obtain the best fit of the data for the calibration curves. The lower limit of quantitation was 10 ng/ml for serum and synovial fluid samples, 10 ng/g for the colon and gall bladder samples, and 30 ng/g for the bone samples.
Tigecycline was measured in human serum using an LC/MS/MS method. The primary stock solution of tigecycline was prepared at 1 mg/ml by dissolving in methanol. A secondary stock solution was prepared from the primary stock solution by diluting to a concentration of approximately 40,000 ng/ml with acetonitrile. The stock solutions were stored at −20° C. when not in use. A primary internal standard solution of tert-butyl-d9-tigecycline was prepared at a concentration of 1 mg/ml in methanol. A secondary internal standard stock solution was prepared by diluting the primary stock solution to a concentration of 100 micrograms/ml in acetonitrile with 0.1% trifluoroacetate added. The primary and secondary stock solutions were stored at −20° C. The working internal standard was prepared by diluting to volume with acetonitrile/0.1% trifluoroacetate. The working internal standard was stored at 4° C. when not in use. On the day of analysis, the secondary stock solution was brought to room temperature before use to prepared the standard curve working solutions. The standard curve was prepared at approximately 2000, 1600, 1000, 500, 250, 100, 50, 20, and 10 ng/ml by serial dilution in blank human serum.
The extraction procedure was as follows: to 200 microliters of calibrator, quality control or sample was added 600 microliters of internal standard working solution and vortex mixed. The samples were centrifuged for 10 minutes at 13000 rpm to separate the layers and the supernatant was transferred to a culture tube. The samples were evaporated to dryness in a Speed Vac. The residues were reconstituted by sonicating in 200 microliters of mobile phase and 10 microliters was injected in the LC/MS/MS. […]

Compound: CN(C)c1cc(NC(=O)CNC(C)(C)C)c(O)c2c1C[C@H]1C[C@H]3[C@H](N(C)C)C(O)=C(C(N)=O)C(=O)[C@@]3(O)C(O)=C1C2=O [Tigecycline]
- Calculated Concentration, tissue (Lung, 4 to 24 hours after dose): 653 n2/2
- concentration at 8 h (human, synovial fluid, intravenous, 100 mg, synovial fluid, 8 Hour, read-out: Calculated Concentration, synovial fluid): 70.9 ng/mL
- concentration at 12 h (human, synovial fluid, intravenous, 100 mg, synovial fluid, 12 Hour, read-out: Calculated Concentration, synovial fluid): 111 ng/mL
- Calculated Concentration, serum (serum, 8 Hour): 198 {n&mll and 186 {n&mll and 133 {n&mll and 206 {n&mll
- Calculated Concentration, synovial fluid (synovial fluid, 12 Hour): 65.0 ng/mL and 65.7 ng/mL and 62.8 ng/mL
